In patent publication US10730872B2, “Pesticidally active heterocyclic derivatives with sulphur containing sustitutents” (SYNGENTA PARTICIPATIONS AG, priority 2015, dated 2020):

Assays:
Assay type in all cases: in vivo
Myzus persicae [1] = assay: Myzus persicae (Green Peach Aphid). Systemic Activity; conditions: 144 h, test rate of 24 ppm, roots of infested pea seedlings in test solution, 6 days
Protocol: Roots of pea seedlings infested with an aphid population of mixed ages were placed directly into aqueous test solutions prepared from 10,000 DMSO stock solutions. The samples were assessed for mortality 6 days after placing seedlings into test solutions.

Euschistus heros = Euschistus heros (Neotropical Brown Stink Bug); conditions: 120 h, application rate of 200 ppm, sprayed soybean leaves, N2 nymphs, 5 days after infestation, read-out: effect in at least one of the two categories (mortality or growth inhibition)
Protocol: Soybean leaves on agar in 24-well microtiter plates were sprayed with aqueous test solutions prepared from 10,000 ppm DMSO stock solutions. After drying the leaves were infested with N2 nymphs. The samples were assessed for mortality and growth inhibition in comparison to untreated samples 5 days after infestation.

Spodoptera littoralis [2] = assay: Spodoptera littoralis (Egyptian Cotton Leaf Worm), uptake by lettuce roots from agar; conditions: 144 h, test rate of 12.5 ppm, mixed with agar, absorbed by lettuce roots, Spodoptera eggs, 6 days after infestation, read-out: effect in at least one of the three categories (mortality, anti-feeding, or growth inhibition)
Description: Test compounds were applied by pipette from 10,000 ppm DMSO stock solutions into 24-well plates and mixed with agar. Lettuce seeds were placed onto the agar and the multi well plate was closed by another plate which contained also agar. After 7 days the compound was absorbed by the roots and the lettuce grew into the lid plate. The lettuce leaves were then cut off into the lid plate. Spodoptera eggs were pipetted through a plastic stencil onto a humid gel blotting paper and the lid plate was closed with it. The samples were assessed for mortality, anti-feedant effect and growth inhibition in comparison to untreated samples 6 days after infestation.

Spodoptera littoralis [3] = assay: Spodoptera littoralis (Egyptian Cotton Leaf Worm), sprayed cotton leaf discs; conditions: foliar, 72 h, application rate of 200 ppm, L1 larvae, 3 days after infestation
Outline: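 Cotton leaf discs on agar sprayed with aqueous dilutions of 10,000 ppm DMSO stocks, dried, then infested with five L1 larvae. Mortality, anti-feeding and growth inhibition scored against untreated discs 3 days after infestation. Control recorded when any one category exceeds the untreated sample.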

Myzus persicae [4] = assay: Myzus persicae (Green Peach Aphid): Feeding/Contact Activity; conditions: foliar, 144 h, application rate of 200 ppm, sprayed sunflower leaf discs, aphid population of mixed ages, 6 days after infestation
Protocol: Sunflower leaf discs were placed onto agar in a 24-well microtiter plate and sprayed with aqueous test solutions prepared from 10,000 ppm DMSO stock solutions. After drying, the leaf discs were infested with an aphid population of mixed ages. The samples were assessed for mortality 6 days after infestation.

Diabrotica balteata = Diabrotica balteata (Corn Root Worm); conditions: 96 h, application rate of 200 ppm, sprayed maize sprouts, L2 larvae, 4 days after infestation, read-out: effect in at least one of the two categories (mortality or growth inhibition)
Protocol: Maize sprouts placed onto an agar layer in 24-well microtiter plates were treated with aqueous test solutions prepared from 10,000 ppm DMSO stock solutions by spraying. After drying, the plates were infested with L2 larvae (6 to 10 per well). The samples were assessed for mortality and growth inhibition in comparison to untreated samples 4 days after infestation.

Aedes aegypti = assay: Aedes Aegypti (Yellow Fever Mosquito); conditions: 200 ppm in ethanol, dry deposit in 12 well plates, adult females, after 48 h and/or 24 h
Protocol: Test solutions, at an application rate of 200 ppm in ethanol, were applied to 12 well tissue culture plates. Once the deposits were dry, five, two to five day old adult female Aedes aegypti were added to each well, and sustained with a 10% sucrose solution in a cotton wool plug. Assessment of knockdown was made one hour after introduction, and mortality was assessed at 24 and 48 hours after introduction.

Tetranychus urticae = Tetranychus urticae (Two-Spotted Spider Mite): Feeding/Contact Activity; conditions: foliar, 192 h, application rate of 200 ppm, sprayed bean leaf discs, mixed population (mobile stages), 8 days after infestation
Protocol: Bean leaf discs on agar in 24-well microtiter plates were sprayed with aqueous test solutions prepared from 10,000 ppm DMSO stock solutions. After drying the leaf discs were infested with a mite population of mixed ages. The samples were assessed for mortality on mixed population (mobile stages) 8 days after infestation.

Plutella xylostella = Plutella xylostella (Diamond Back Moth); conditions: 120 h, application rate of 200 ppm, artificial diet, L2 larvae, 5 days after infestation, read-out: effect in at least one of the two categories (mortality or growth inhibition)
Protocol: 24-well microtiter plates with artificial diet were treated with aqueous test solutions prepared from 10,000 ppm DMSO stock solutions by pipetting. After drying, the plates were infested with L2 larvae (10 to 15 per well). The samples were assessed for mortality and growth inhibition in comparison to untreated samples 5 days after infestation.

Bemisia tabaci = Bemisia tabaci (Cotton White Fly): Feeding/Contact Activity; conditions: foliar, 144 h, application rate of 200 ppm, sprayed cotton leaf discs, adult white flies, 6 days after incubation
Protocol: Cotton leaf discs were placed on agar in 24-well microtiter plates and sprayed with aqueous test solutions prepared from 10,000 ppm DMSO stock solutions. After drying the leaf discs were infested with adult white flies. The samples were checked for mortality 6 days after incubation.

[5] = test system: Frankliniella occidentalis; assay: Frankliniella occidentalis (Western Flower Thrips): Feeding/Contact Activity; conditions: foliar, 168 h, application rate of 200 ppm, sprayed sunflower leaf discs, population of mixed ages, 7 days after infestation
Protocol: Sunflower leaf discs were placed on agar in 24-well microtiter plates and sprayed with aqueous test solutions prepared from 10,000 DMSO stock solutions. After drying the leaf discs were infested with a Frankliniella population of mixed ages. The samples were assessed for mortality 7 days after infestation.

CCS(=O)(=O)c1ccc(NC2CC2)nc1-c1nc2cc(C(F)(F)F)n(C)c(=O)c2n1C [Compound A2, 2-[6-(cyclopropylamino)-3-ethylsulfonyl-2-pyridyl]-3,5-dimethyl-6-(trifluoromethyl)imidazo[4,5-c]pyridin-4-one]
≥ 80%: mortality at 24 ppm (Myzus persicae [1]) | percent effect (mortality or growth inhibition) at 200 ppm (Euschistus heros) | percent effect (mortality, anti-feeding or growth inhibition) at 12.5 ppm (Spodoptera littoralis [2]) | percent control (mortality, anti-feeding effect or growth inhibition) at 200 ppm (Spodoptera littoralis [3]) | mortality at 200 ppm (Myzus persicae [4]) | effect mortality or growth inhibition at 200 ppm (Diabrotica balteata) | pest or weed control at 200 ppm (Aedes aegypti) | mortality at 200 ppm (Tetranychus urticae) | percent effect (mortality or growth inhibition) at 200 ppm (Plutella xylostella)

CCn1c(C(F)(F)F)cc2nc(-c3ncc(N)cc3S(=O)(=O)CC)n(C)c2c1=O [Compound A5, 2-(5-amino-3-ethylsulfonyl-2-pyridyl)-5-ethyl-3-methyl-6-(trifluoromethyl)imidazo[4,5-c]pyridin-4-one]
≥ 80%: percent control (mortality, anti-feeding effect or growth inhibition) at 200 ppm (Spodoptera littoralis [3]) | mortality at 200 ppm (Myzus persicae [4]) | effect mortality or growth inhibition at 200 ppm (Diabrotica balteata) | pest or weed control at 200 ppm (Aedes aegypti) | percent effect (mortality or growth inhibition) at 200 ppm (Plutella xylostella)

CCn1c(C(F)(F)F)cc2nc(-c3nc(N)ccc3S(=O)(=O)CC)n(C)c2c1=O [Compound A6, 2-(6-amino-3-ethylsulfonyl-2-pyridyl)-5-ethyl-3-methyl-6-(trifluoromethyl)imidazo[4,5-c]pyridin-4-one]
≥ 80%: mortality at 24 ppm (Myzus persicae [1]) | percent effect (mortality or growth inhibition) at 200 ppm (Euschistus heros) | percent effect (mortality, anti-feeding or growth inhibition) at 12.5 ppm (Spodoptera littoralis [2]) | percent control (mortality, anti-feeding effect or growth inhibition) at 200 ppm (Spodoptera littoralis [3]) | mortality at 200 ppm (Myzus persicae [4]) | effect mortality or growth inhibition at 200 ppm (Diabrotica balteata) | pest or weed control at 200 ppm (Aedes aegypti) | mortality at 200 ppm (Bemisia tabaci) | percent effect (mortality or growth inhibition) at 200 ppm (Plutella xylostella)

CCn1c(C(F)(F)F)cc2nc(-c3nc(NC(=O)C4CC4)ccc3S(=O)(=O)CC)n(C)c2c1=O [Compound A8, N-[6-[5-ethyl-3-methyl-4-oxo-6-(trifluoromethyl)imidazo[4,5-c]pyridin-2-yl]-5-ethylsulfonyl-2-pyridyl]cyclopropanecarboxamide]
≥ 80%: mortality at 200 ppm [5] | percent effect (mortality or growth inhibition) at 200 ppm (Euschistus heros) | percent effect (mortality, anti-feeding or growth inhibition) at 12.5 ppm (Spodoptera littoralis [2]) | percent control (mortality, anti-feeding effect or growth inhibition) at 200 ppm (Spodoptera littoralis [3]) | mortality at 200 ppm (Myzus persicae [4]) | effect mortality or growth inhibition at 200 ppm (Diabrotica balteata) | mortality at 200 ppm (Bemisia tabaci) | percent effect (mortality or growth inhibition) at 200 ppm (Plutella xylostella)

CCn1c(C(F)(F)F)cc2nc(-c3nc(N(C)C4CC4)ccc3S(=O)(=O)CC)n(C)c2c1=O [Compound A12, 2-[6-[cyclopropyl(methyl)amino]-3-ethylsulfonyl-2-pyridyl]-5-ethyl-3-methyl-6-(trifluoromethyl)imidazo[4,5-c]pyridin-4-one]
≥ 80%: percent effect (mortality or growth inhibition) at 200 ppm (Euschistus heros) | percent control (mortality, anti-feeding effect or growth inhibition) at 200 ppm (Spodoptera littoralis [3]) | mortality at 200 ppm (Myzus persicae [4]) | effect mortality or growth inhibition at 200 ppm (Diabrotica balteata) | pest or weed control at 200 ppm (Aedes aegypti) | mortality at 200 ppm (Bemisia tabaci) | percent effect (mortality or growth inhibition) at 200 ppm (Plutella xylostella)

CCn1c(C(F)(F)F)cc2nc(-c3nc(NC4CC4)ccc3S(=O)(=O)CC)n(C)c2c1=O [Compound A30, 2-[6-(cyclopropylamino)-3-ethylsulfonyl-2-pyridyl]-5-ethyl-3-methyl-6-(trifluoromethyl)imidazo[4,5-c]pyridin-4-one]
≥ 80%: mortality at 24 ppm (Myzus persicae [1]) | percent effect (mortality or growth inhibition) at 200 ppm (Euschistus heros) | percent control (mortality, anti-feeding effect or growth inhibition) at 200 ppm (Spodoptera littoralis [3]) | mortality at 200 ppm (Myzus persicae [4]) | effect mortality or growth inhibition at 200 ppm (Diabrotica balteata) | pest or weed control at 200 ppm (Aedes aegypti) | mortality at 200 ppm (Bemisia tabaci) | mortality at 200 ppm (Tetranychus urticae) | percent effect (mortality or growth inhibition) at 200 ppm (Plutella xylostella)

CCn1c(C(F)(F)F)cc2nc(-c3nc(N)c(Cl)cc3S(=O)(=O)CC)n(C)c2c1=O [Compound A38, 2-(6-amino-5-chloro-3-ethylsulfonyl-2-pyridyl)-5-ethyl-3-methyl-6-(trifluoromethyl)imidazo[4,5-c]pyridin-4-one]
≥ 80%: percent effect (mortality or growth inhibition) at 200 ppm (Euschistus heros) | percent effect (mortality, anti-feeding or growth inhibition) at 12.5 ppm (Spodoptera littoralis [2]) | percent control (mortality, anti-feeding effect or growth inhibition) at 200 ppm (Spodoptera littoralis [3]) | mortality at 200 ppm (Myzus persicae [4]) | effect mortality or growth inhibition at 200 ppm (Diabrotica balteata) | pest or weed control at 200 ppm (Aedes aegypti) | mortality at 200 ppm (Bemisia tabaci) | percent effect (mortality or growth inhibition) at 200 ppm (Plutella xylostella)

CCn1c(C(F)(F)F)cc2nc(-c3nc(N)c(Br)cc3S(=O)(=O)CC)n(C)c2c1=O [Compound A39, 2-(6-amino-5-bromo-3-ethylsulfonyl-2-pyridyl)-5-ethyl-3-methyl-6-(trifluoromethyl)imidazo[4,5-c]pyridin-4-one]
≥ 80%: percent effect (mortality or growth inhibition) at 200 ppm (Euschistus heros) | percent effect (mortality, anti-feeding or growth inhibition) at 12.5 ppm (Spodoptera littoralis [2]) | percent control (mortality, anti-feeding effect or growth inhibition) at 200 ppm (Spodoptera littoralis [3]) | mortality at 200 ppm (Myzus persicae [4]) | effect mortality or growth inhibition at 200 ppm (Diabrotica balteata) | pest or weed control at 200 ppm (Aedes aegypti) | mortality at 200 ppm (Bemisia tabaci) | percent effect (mortality or growth inhibition) at 200 ppm (Plutella xylostella)

CCS(=O)(=O)c1ccc(N)nc1-c1nc2cc(C(F)(F)F)n(C3CC3)c(=O)c2n1C [Compound A42, 2-(6-amino-3-ethylsulfonyl-2-pyridyl)-5-cyclopropyl-3-methyl-6-(trifluoromethyl)imidazo[4,5-c]pyridin-4-one]
≥ 80%: mortality at 24 ppm (Myzus persicae [1]) | percent effect (mortality or growth inhibition) at 200 ppm (Euschistus heros) | percent effect (mortality, anti-feeding or growth inhibition) at 12.5 ppm (Spodoptera littoralis [2]) | percent control (mortality, anti-feeding effect or growth inhibition) at 200 ppm (Spodoptera littoralis [3]) | mortality at 200 ppm (Myzus persicae [4]) | effect mortality or growth inhibition at 200 ppm (Diabrotica balteata) | mortality at 200 ppm (Bemisia tabaci) | mortality at 200 ppm (Tetranychus urticae) | percent effect (mortality or growth inhibition) at 200 ppm (Plutella xylostella)
